Series [1] can be described thus: MS analysis of tissues and urine for 100 parent ion after injection. The series is classed as in vivo, mouse. The text has this: (§1) Whereas fluorophore-tethered probes are useful for detecting and following uptake of tumors on the skin surface in live animals, even with the most sensitive of far red or nIR detectors, due to light scattering, detection of emitted fluorescent light is limited to a depth of few mm of tissue. However, when used in conjunction with live imaging, 3D cryosectioning enables the biodistribution of fluorescent probes to the histological level throughout the body. Following sacrifice the animal was cryopreserved in liquid N2, then longitudinal cryosectioned at 40-μm slices. Each slice was imaged for fluorescence with an mCherry band filter (excitation 550-590 nm, emission 600-670 nm) as well as bright field (all slice image data can be down loaded at https://goo.gl/Z30dXJ). The images were reconstructed to create a 3D fluorescence and bright field images of the entire mouse anatomy (FIG. 4a). This process allowed for the first time a detailed examination of the complete biodistribution of 100 at the histological level in every organ. A control non-treated mouse was also imaged using an EGFP-mCherry dual band filter set. The limits of detection of 100 by fluorescence are estimated to be at <1-2 μmol. In a parallel study, an MS analysis was conducted on specific fluorescent tissues to confirm the presence of 100 parent ion (m/z=660.0 [M+2]2+).

In series [2] the test system is MDA-MB-468 flank tumors. In words: Whole mouse 3D cryo-imaging of probe biodistribution, MDA-MB-468 flank xenograft. It is filed as in vivo. On the procedure:
All protocols involving the use of mice were approved beforehand by the IACUC at Duke University and were strictly adhered to throughout the studies. A wild-type 3-month-old male SCID mouse with a right flank xenograft with MDA-MB-468 cells was injected with 25 nmol 100 through the tail vein. Six hours later, the mouse was euthanized, prepared according to the instructions from BioInVision, Inc. (Cleveland, Ohio, USA) and shipped for Cryo-Imaging and reconstruction. An EGFP/mCherry dual band filter set was used for imaging (#59022; Chroma Technology Corporation, Bellows Falls, Vt., USA).
The majority of cells are fully differentiated and not actively dividing, whereas some subpopulations of cells are constantly undergoing division and growth, such as the […] layer lining the intestinal tract. To determine if non-tumor cells express/internalize eHsp90, 3D cyrosectioning of mice bearing MDA-MB-468 flank tumors 6 hours post 100 injection was carried out. Probe uptake into the tumor in the live animal was first confirmed in a Licor instrument.
as §1

The subject of series [3] is MDA-MB-468 cells. In words: 100 internalization assay in MDA-MB-468 cells. It is filed as cell-based. On the procedure:
Cells were plated on uncoated 18-mm round coverslips in 12 well plates at 150,000 cells/well and were allowed to adhere overnight. 100, in a stock solution in DMSO, was diluted in serum-free/phenol red-free DMEM. After drug incubation, the cells were washed twice with ice-cold PBS, fixed with 1% PFA in PBS for 10 min, and stained with 5 μg/mL wheat germ agglutinin-488 (WGA-488, Invitrogen, Waltham, Mass.) and either Hoescht or DAPI. The coverslips were washed and mounted onto microscope slides using FluorSave mounting reagent (Millipore, Darmstadt, Germany). Slides were imaged on a Leica SP5 confocal microscope.
(§2) Images were analyzed for fluorescence and puncta using ImageJ software using a non-biased, high-throughput macro. In brief, cells were selected using an expanded selection from the DAPI channel. The regions of interest were then masked, a watershed filter was applied to split adjacent cells into separate cells, and the regions of interest were applied to the 100 channel to measure fluorescence and puncta. High resolution confocal stacks were deconvolved with Hyugen's Deconvolution Software or AiryScan.
(§3) To analyze the internalization of eHsp90 in transformed cells, the 4T1 cell model was utilized.

Series [4] can be described thus: Absorbance and emission maxima of near IR fluorescent probes (Table 1). The series is classed as physicochemical.
The test system of series [5] is eHsp90. In words: Competition of fluorescent probe binding to eHsp90 on cells by untethered Hsp90 inhibitors. The series is classed as cell-based. The following applies: for blocking of binding of 100 and HS-27 to eHsp90: untethered Hsp90 inhibitors. On the procedure:
Cells were plated on uncoated 18-mm round coverslips in 12 well plates at 150,000 cells/well and were allowed to adhere overnight. 100, in a stock solution in DMSO, was diluted in serum-free/phenol red-free DMEM. […] The coverslips were washed and mounted onto microscope slides using FluorSave mounting reagent (Millipore, Darmstadt, Germany). Slides were imaged on a Leica SP5 confocal microscope.
as §2, §3

From patent publication US11261187B2, “Compounds and methods for targeting HSP90” (Duke University, priority 2016, dated 2022) come the findings set out here.

Consider `Cc1nn(-c2ccc(C(N)=O)c(NCCCOCCOCCOCCOCCOCCCNCc3ccc(C(=C\C=C4\N(CCCCS(=O)(=O)O)c5ccccc5C4(C)C)/C=C/C4=[N+](CCCCS(=O)(=O)[O-])c5ccccc5C4(C)C)cc3)c2)c2c1C(=O)CC(C)(C)C2` [Compound 100, 4-(2-((1E,3Z)-3-(4-(21-((2-carbamoyl-5-(3,6,6-trimethyl-4-oxo-4,5,6,7-tetrahydro-1H-indazol-1-yl)phenyl)amino)-6,9,12,15,18-pentaoxa-2-azahenicosyl)phenyl)-5-((Z)-3,3-dimethyl-1-(4-sulfobutyl)indolin-2-ylidene)penta-1,3-dien-1-yl)-3,3-dimethyl-3H-indol-1-ium-1-yl)butane-1-sulfonate], for which the “MS detection of parent ion in intestines” value in series [1] (6 hr post-drug injection) was “did not show the presence of the parent 100 ion”. For the same compound, the “concentration of intact parent molecule in tumor” value in series [1] (MS analysis of flank tumor) is on record as ~325 nM (w.w.). In addition, the concentration at 6 h in series [1] (SCID, mouse, other: injection, MS analysis of urine, 6 hours) was ~50 nM. Besides, in series [1] (mouse, in vivo), the “MS detection of parent ion in eyes” value was “did not show evidence of the 100 parent ion” and the route of elimination entry is reported as “primarily eliminated intact through the kidney”. In addition, in series [2] (6 hour time point), the clearance from vasculature result is “cleared from the entire vasculature by the 6 hour time point” and the “probe related fluorescence in major organs (heart, lungs, liver, kidney, spleen, brain, skeletal muscle, stomach, skin, thyroid, prostate, fur)” value is given as “completely devoid of 100 related fluorescence”. For the same compound, the “probe in gut wall or endothelial lining of upper intestine” value in series [2] (6 hours post injection, 25 nmol tail vein) is on record as “no evidence of 100 in the gut wall or endothelial lining”. Further, the “uptake in skeletal structures, bone marrow, spinal and synovial fluid” value in series [2] (6 hours, confirmed by MS analysis) was “No uptake”. Besides, in series [2] (SCID mouse, 6 hours), the “uptake into lymph nodes” value is listed as “uptake of 100 into the lymph nodes”. Moreover, in series [3], the cell permeability result was “not cell permeable”.
On to `Cc1nn(-c2ccc(C(N)=O)c(NCCCOCCOCCOCCOCCOCCCNC(=O)c3ccc(C(=C\C=C4\N(CCCCS(=O)(=O)O)c5ccccc5C4(C)C)/C=C/C4=[N+](CCCCS(=O)(=O)[O-])c5ccccc5C4(C)C)cc3)c2)c2c1C(=O)CC(C)(C)C2` [Compound 102, 4-(2-((1E,3Z)-3-(4-((19-((2-carbamoyl-5-(3,6,6-trimethyl-4-oxo-4,5,6,7-tetrahydro-1H-indazol-1-yl)phenyl)amino)-4,7,10,13,16-pentaoxanonadecyl)-carbamoyl)phenyl)-5-((E)-3,3-dimethyl-1-(4-sulfobutyl)indolin-2-ylidene)penta-1,3-dien-1-yl)-3,3-dimethyl-3H-indol-1-ium-1-yl)butane-1-sulfonate], for which, in series [4], the “Abs. Max” value was determined as 643 and the “Em. Max” value was found to be 670.
The corresponding values for `Cc1nn(-c2ccc(C(N)=O)c(NCCCOCCOCCOCCOCCOCCCNCc3ccc(C4=C(/C=C/C5=[N+](CCCCS(=O)(=O)[O-])c6ccccc6C5(C)C)CCC/C4=C\C=C4\N(CCCCS(=O)(=O)O)c5ccccc5C4(C)C)cc3)c2)c2c1C(=O)CC(C)(C)C2` [Compound 105, 4-(2-((E)-2-((E)-4′-(21-((2-carbamoyl-5-(3,6,6-trimethyl-4-oxo-4,5,6,7-tetrahydro-1H-indazol-1-yl)phenyl)amino)-6,9,12,15,18-pentaoxa-2-azahenicosyl)-6-(2-((E)-3,3-dimethyl-1-(4-sulfobutyl)indolin-2-ylidene)ethylidene)-3,4,5,6-tetrahydro-[1,1′-biphenyl]-2-yl)vinyl)-3,3-dimethyl-3H-indol-1-ium-1-yl)butane-1-sulfonate] are 766 and 796.
The corresponding values for `Cc1nn(-c2ccc(C(N)=O)c(NCCCOCCOCCOCCOCCOCCCNC(=O)c3ccc(C4=C(/C=C/C5=[N+](CCCCS(=O)(=O)[O-])c6ccccc6C5(C)C)CCC/C4=C\C=C4\N(CCCCS(=O)(=O)O)c5ccccc5C4(C)C)cc3)c2)c2c1C(=O)CC(C)(C)C2` [Compound 106, 4-(2-((E)-2-((E)-4′-((19-((2-carbamoyl-5-(3,6,6-trimethyl-4-oxo-4,5,6,7-tetrahydro-1H-indazol-1-yl)phenyl)amino)-4,7,10,13,16-pentaoxanonadecyl)carbamoyl)-6-(2-((E)-3,3-dimethyl-1-(4-sulfobutyl)indolin-2-ylidene)ethylidene)-3,4,5,6-tetrahydro-[1,1′-biphenyl]-2-yl)vinyl)-3,3-dimethyl-3H-indol-1-ium-1-yl)butane-1-sulfonate] are 766 and 795.
Consider `Cc1nn(-c2ccc(C(N)=O)c(NCCCOCCOCCOCCOCCOCCCNCc3ccc(C4=C(/C=C/C5=[N+](CCCCS(=O)(=O)[O-])c6ccc(S(=O)(=O)O)cc6C5(C)C)CCC/C4=C\C=C4\N(CCCCS(=O)(=O)O)c5ccc(S(=O)(=O)O)cc5C4(C)C)cc3)c2)c2c1C(=O)CC(C)(C)C2` [Compound 108, 4-(2-((E)-2-((E)-4′-(21-((2-carbamoyl-5-(3,6,6-trimethyl-4-oxo-4,5,6,7-tetrahydro-1H-indazol-1-yl)phenyl)amino)-6,9,12,15,18-pentaoxa-2-azahenicosyl)-6-(2-((E)-3,3-dimethyl-5-sulfo-1-(4-sulfobutyl)indolin-2-ylidene)ethylidene)-3,4,5,6-tetrahydro-[1,1′-biphenyl]-2-yl)vinyl)-3,3-dimethyl-5-sulfo-3H-indol-1-ium-1-yl)butane-1-sulfonate], for which, in series [4], the “Abs. Max” value is given as 775 and the “Em. Max” value worked out at 802.
The corresponding values for `Cc1nn(-c2ccc(C(N)=O)c(NCCCOCCOCCOCCOCCOCCCNCc3ccc(C4=C(/C=C/C5=[N+](CCCCS(=O)(=O)[O-])c6ccc7ccccc7c6C5(C)C)CCC/C4=C\C=C4\N(CCCCS(=O)(=O)O)c5ccc6ccccc6c5C4(C)C)cc3)c2)c2c1C(=O)CC(C)(C)C2` [Compound 111] are 803 and 828.
Turning to `Cc1nn(-c2ccc(C(N)=O)c(NCCCOCCOCCOCCOCCOCCCNC(=O)c3ccc(C4=C(/C=C/C5=[N+](CCCCS(=O)(=O)[O-])c6ccc7ccccc7c6C5(C)C)CCC/C4=C\C=C4\N(CCCCS(=O)(=O)O)c5ccc6ccccc6c5C4(C)C)cc3)c2)c2c1C(=O)CC(C)(C)C2` [Compound 112], in series [4], the “Abs. Max” value came out at 803 and the “Em. Max” value is listed as 829.
With `CC(C)c1cc(-c2n[nH]c(=O)n2-c2ccc3c(ccn3C)c2)c(O)cc1O` [Ganetespib], the “blocking of binding of 100 and HS-27 to eHsp90” value (from here on “blocking”) in series [5] was “blocked”.
Regarding `CC(C)NCCCn1c(Sc2cc3c(cc2I)OCO3)nc2c(N)ncnc21` [PUH71], the “competition of binding of probe 100 to eHsp90” value in series [5] (MDA-MB-468 cells, 100 at 25 μM, 45 min, 1 μM HS-10 or 10 μM PUH71) was “competed”. In addition, in series [5], the “blocking” value is reported as “blocked”.
In the case of `CC1(C)CC(=O)c2c(C(F)(F)F)nn(-c3ccc(C(N)=O)c(N[C@H]4CC[C@H](O)CC4)c3)c2C1` [SNX2112], in series [5], the “blocking” value is on record as “blocked”.
